Laboratory results from ChEMBL document CHEMBL1201862, “PubChem BioAssay data set” (2004).
One block for each compound: values may come before it. Activity calls are given as the source filed them. The rule behind the calls is not given here.

Experiments:
Type in all cases: functional
[1] = biological target: Leucine-rich repeat serine/threonine-protein kinase 2 (Homo sapiens, UniProt Q5S007);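 note: value from a broad kinome-wide panel profiling study in which LRRK2 was one of the kinases tested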
[2] = biological target: Calcium/calmodulin-dependent protein kinase type II subunit alpha (Homo sapiens, UniProt Q9UQM7); assay: Navigating the Kinome. Panel member name: CAMK2A
[3] = biological target: Cyclin-dependent kinase 5 (Homo sapiens, UniProt Q00535);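 note: CDK5 measured as one member of a kinase profiling panel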
[4] = biological target: Serine/threonine-protein kinase PAK 4 (Homo sapiens, UniProt O96013);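 note: value obtained within a kinome profiling panel in which PAK4 was one of the panel members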
[5] = biological target: Protein kinase C theta type (Homo sapiens, UniProt Q04759); assay: Navigating the Kinome. Panel member name: PRKCQ
[6] = biological target: T1, Serine/threonine-protein kinase TAO1 (Homo sapiens, UniProt Q7L7X3)
T1 sequence (Q7L7X3 whole entry): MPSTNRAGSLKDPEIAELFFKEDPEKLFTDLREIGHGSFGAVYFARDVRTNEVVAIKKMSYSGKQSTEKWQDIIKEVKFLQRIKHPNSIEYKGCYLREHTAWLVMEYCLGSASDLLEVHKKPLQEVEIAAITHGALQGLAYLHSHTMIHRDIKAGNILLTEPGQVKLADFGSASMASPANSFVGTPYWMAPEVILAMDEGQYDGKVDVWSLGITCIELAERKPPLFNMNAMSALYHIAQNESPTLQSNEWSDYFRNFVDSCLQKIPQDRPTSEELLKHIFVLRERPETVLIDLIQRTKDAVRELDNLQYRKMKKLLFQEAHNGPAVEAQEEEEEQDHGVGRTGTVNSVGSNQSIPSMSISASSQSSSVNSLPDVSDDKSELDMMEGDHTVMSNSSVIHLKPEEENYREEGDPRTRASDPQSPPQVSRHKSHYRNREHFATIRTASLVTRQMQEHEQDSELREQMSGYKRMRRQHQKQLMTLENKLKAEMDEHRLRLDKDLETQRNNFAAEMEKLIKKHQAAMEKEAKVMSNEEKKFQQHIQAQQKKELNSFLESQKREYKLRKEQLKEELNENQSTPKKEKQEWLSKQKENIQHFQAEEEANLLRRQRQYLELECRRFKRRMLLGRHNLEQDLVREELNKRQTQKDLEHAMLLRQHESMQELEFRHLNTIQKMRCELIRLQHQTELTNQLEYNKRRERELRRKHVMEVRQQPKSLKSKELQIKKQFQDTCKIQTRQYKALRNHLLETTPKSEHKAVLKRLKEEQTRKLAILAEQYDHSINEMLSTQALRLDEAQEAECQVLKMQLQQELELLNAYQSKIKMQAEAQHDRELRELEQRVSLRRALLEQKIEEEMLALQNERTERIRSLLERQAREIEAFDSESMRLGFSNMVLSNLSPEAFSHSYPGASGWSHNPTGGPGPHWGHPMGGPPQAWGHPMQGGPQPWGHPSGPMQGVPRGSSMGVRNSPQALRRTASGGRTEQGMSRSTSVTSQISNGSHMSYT

[7] = biological target: Tyrosine-protein kinase ABL1 (Homo sapiens, UniProt P00519)
[8] = biological target: Vascular endothelial growth factor receptor 1 (Homo sapiens, UniProt P17948);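 note: measured within a kinome-wide profiling panel, FLT1 as the panel member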
[9] = biological target: Fibroblast growth factor receptor 1 (Homo sapiens, UniProt P11362)
[10] = biological target: T2, Serine/threonine-protein kinase TBK1 (Homo sapiens, UniProt Q9UHD2); assay: Navigating the Kinome. Panel member name: TBK1
T2 sequence (Q9UHD2 whole entry): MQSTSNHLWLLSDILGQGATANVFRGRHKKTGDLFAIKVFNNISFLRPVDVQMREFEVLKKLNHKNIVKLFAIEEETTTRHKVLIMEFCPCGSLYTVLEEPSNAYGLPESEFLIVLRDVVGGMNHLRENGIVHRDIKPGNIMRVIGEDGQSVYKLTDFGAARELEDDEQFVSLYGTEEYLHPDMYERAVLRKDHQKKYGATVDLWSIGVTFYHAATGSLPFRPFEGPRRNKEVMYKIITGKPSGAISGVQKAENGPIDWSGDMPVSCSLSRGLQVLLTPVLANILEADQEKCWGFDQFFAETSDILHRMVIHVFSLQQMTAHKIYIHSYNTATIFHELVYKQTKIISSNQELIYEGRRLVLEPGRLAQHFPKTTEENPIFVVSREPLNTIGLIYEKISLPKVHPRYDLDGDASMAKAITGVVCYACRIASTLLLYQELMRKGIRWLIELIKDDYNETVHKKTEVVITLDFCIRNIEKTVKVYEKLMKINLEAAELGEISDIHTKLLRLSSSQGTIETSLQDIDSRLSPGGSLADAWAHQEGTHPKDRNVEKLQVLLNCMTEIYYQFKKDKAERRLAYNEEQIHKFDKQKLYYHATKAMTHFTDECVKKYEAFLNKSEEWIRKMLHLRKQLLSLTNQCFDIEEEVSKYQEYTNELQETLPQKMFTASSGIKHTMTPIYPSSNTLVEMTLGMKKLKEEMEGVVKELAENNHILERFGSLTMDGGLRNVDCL

[11] = biological target: Dual specificity mitogen-activated protein kinase kinase 1 (Homo sapiens, UniProt Q02750); assay: Navigating the Kinome. Panel member name: MAP2K1
[12] = biological target: Serine/threonine-protein kinase BRSK1 (Homo sapiens, UniProt Q8TDC3);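 note: measured within a kinome-wide kinase panel, with the target listed as KIAA1811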
[13] = biological target: MAP kinase-activated protein kinase 2 (Homo sapiens, UniProt P49137);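 note: measured as one member of a kinome-wide kinase panel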
[14] = biological target: Tyrosine-protein kinase Blk (Homo sapiens, UniProt P51451);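 note: obtained as one member of a kinome-wide kinase assay panel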
[15] = biological target: Cell division cycle 7-related protein kinase (Homo sapiens, UniProt O00311);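 note: value obtained from a kinome-wide kinase panel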
[16] = biological target: RAC-alpha serine/threonine-protein kinase (Homo sapiens, UniProt P31749);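 note: AKT1 affinity measured as one member of a kinome-wide kinase profiling panel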
[17] = biological target: Mitogen-activated protein kinase 13 (Homo sapiens, UniProt O15264)
[18] = biological target: Cyclin-dependent kinase 1 (Homo sapiens, UniProt P06493);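 note: Kinome-wide panel profiling, with the target listed as panel member CDC2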
[19] = biological target: Maternal embryonic leucine zipper kinase (Homo sapiens, UniProt Q14680)
[20] = biological target: Casein kinase I isoform gamma-1 (Homo sapiens, UniProt Q9HCP0);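 note: measured as the CSNK1G1 member of a kinome profiling panel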

Chain of Fibroblast growth factor receptor 1 (P11362 whole entry): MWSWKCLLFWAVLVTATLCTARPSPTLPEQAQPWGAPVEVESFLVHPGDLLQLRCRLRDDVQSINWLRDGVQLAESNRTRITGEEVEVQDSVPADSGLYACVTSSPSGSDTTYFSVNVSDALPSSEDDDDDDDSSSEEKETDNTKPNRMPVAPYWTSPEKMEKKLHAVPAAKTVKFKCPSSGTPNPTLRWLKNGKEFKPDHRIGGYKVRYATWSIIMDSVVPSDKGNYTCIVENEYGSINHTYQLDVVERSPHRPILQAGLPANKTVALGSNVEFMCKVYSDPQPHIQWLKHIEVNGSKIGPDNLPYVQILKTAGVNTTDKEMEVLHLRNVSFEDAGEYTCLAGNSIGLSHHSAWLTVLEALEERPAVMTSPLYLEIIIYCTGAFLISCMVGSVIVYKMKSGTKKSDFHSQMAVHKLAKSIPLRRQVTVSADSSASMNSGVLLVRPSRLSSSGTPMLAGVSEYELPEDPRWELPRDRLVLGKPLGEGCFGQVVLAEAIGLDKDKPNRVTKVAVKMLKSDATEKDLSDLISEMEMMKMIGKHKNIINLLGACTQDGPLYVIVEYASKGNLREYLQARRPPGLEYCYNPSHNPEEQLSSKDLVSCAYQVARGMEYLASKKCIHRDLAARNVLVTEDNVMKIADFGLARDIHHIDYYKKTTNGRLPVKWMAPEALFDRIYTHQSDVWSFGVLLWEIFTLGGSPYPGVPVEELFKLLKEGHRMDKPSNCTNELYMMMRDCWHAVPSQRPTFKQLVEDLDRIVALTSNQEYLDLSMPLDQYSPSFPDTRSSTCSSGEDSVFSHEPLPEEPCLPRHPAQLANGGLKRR
Chain of Serine/threonine-protein kinase PAK 4 (O96013 whole entry): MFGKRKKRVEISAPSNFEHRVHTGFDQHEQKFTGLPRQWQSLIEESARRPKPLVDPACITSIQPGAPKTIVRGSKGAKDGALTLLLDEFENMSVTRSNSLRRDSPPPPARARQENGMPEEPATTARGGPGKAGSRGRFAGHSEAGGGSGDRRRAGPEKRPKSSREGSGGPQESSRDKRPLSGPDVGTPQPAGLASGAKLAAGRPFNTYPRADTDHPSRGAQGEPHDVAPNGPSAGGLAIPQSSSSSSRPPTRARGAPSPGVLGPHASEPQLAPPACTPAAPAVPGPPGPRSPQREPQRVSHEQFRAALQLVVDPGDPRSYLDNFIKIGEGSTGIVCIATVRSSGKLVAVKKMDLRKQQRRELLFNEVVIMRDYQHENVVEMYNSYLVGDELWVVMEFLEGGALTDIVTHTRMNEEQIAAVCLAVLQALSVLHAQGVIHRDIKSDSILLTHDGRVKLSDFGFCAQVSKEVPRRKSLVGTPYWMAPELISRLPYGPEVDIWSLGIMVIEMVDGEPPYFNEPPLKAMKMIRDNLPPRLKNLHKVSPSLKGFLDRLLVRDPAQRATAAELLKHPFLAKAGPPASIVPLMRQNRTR
Chain of Cyclin-dependent kinase 5 (Q00535 whole entry): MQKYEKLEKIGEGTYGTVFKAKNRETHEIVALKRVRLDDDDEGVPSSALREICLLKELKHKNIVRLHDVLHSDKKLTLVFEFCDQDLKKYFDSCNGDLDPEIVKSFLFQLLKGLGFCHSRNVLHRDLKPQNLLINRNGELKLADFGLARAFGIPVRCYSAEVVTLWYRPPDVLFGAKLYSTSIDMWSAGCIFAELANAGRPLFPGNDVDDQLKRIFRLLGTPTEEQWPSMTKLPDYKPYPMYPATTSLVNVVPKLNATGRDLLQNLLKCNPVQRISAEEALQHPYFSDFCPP
Chain of Calcium/calmodulin-dependent protein kinase type II subunit alpha (Q9UQM7 whole entry): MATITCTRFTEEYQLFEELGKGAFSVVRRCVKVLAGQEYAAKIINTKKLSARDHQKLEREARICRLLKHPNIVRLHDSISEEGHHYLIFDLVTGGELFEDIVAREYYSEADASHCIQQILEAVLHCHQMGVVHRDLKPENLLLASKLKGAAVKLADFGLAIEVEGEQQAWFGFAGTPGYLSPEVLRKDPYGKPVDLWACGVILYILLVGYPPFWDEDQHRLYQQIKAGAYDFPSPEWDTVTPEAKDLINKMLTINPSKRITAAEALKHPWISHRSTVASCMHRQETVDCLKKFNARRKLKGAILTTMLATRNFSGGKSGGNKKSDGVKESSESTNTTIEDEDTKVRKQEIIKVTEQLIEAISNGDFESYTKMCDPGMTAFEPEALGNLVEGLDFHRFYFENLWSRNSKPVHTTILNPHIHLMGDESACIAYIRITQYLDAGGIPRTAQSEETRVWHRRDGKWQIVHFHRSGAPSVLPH
Chain of Tyrosine-protein kinase ABL1 (P00519 whole entry): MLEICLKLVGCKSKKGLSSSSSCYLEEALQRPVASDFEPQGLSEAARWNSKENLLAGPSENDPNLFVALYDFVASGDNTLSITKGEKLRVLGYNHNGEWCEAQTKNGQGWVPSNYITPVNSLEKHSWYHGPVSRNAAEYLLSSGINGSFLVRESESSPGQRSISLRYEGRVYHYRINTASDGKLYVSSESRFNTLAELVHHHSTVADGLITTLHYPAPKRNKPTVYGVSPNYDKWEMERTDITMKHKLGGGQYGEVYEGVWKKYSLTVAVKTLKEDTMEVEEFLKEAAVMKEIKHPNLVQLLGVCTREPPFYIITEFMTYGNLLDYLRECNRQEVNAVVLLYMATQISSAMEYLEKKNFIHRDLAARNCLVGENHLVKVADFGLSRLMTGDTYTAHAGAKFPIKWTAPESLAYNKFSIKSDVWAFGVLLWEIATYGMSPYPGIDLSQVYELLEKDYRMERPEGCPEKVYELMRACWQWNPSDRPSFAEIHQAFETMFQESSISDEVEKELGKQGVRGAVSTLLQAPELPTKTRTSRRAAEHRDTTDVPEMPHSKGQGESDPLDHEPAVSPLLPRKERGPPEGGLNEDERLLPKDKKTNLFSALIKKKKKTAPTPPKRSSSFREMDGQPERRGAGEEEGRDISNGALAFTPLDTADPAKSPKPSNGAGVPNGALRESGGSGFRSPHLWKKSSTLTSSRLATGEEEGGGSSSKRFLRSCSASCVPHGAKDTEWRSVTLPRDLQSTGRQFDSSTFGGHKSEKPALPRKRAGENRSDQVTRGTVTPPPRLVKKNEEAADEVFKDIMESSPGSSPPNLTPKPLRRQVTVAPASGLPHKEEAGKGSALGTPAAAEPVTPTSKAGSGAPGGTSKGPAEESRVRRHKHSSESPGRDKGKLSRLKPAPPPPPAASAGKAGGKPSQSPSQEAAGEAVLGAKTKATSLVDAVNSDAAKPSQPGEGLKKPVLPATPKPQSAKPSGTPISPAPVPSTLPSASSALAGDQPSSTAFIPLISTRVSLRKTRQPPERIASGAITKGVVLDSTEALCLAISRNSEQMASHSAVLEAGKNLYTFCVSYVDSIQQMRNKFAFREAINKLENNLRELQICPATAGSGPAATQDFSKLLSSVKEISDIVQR
Chain of Vascular endothelial growth factor receptor 1 (P17948 whole entry): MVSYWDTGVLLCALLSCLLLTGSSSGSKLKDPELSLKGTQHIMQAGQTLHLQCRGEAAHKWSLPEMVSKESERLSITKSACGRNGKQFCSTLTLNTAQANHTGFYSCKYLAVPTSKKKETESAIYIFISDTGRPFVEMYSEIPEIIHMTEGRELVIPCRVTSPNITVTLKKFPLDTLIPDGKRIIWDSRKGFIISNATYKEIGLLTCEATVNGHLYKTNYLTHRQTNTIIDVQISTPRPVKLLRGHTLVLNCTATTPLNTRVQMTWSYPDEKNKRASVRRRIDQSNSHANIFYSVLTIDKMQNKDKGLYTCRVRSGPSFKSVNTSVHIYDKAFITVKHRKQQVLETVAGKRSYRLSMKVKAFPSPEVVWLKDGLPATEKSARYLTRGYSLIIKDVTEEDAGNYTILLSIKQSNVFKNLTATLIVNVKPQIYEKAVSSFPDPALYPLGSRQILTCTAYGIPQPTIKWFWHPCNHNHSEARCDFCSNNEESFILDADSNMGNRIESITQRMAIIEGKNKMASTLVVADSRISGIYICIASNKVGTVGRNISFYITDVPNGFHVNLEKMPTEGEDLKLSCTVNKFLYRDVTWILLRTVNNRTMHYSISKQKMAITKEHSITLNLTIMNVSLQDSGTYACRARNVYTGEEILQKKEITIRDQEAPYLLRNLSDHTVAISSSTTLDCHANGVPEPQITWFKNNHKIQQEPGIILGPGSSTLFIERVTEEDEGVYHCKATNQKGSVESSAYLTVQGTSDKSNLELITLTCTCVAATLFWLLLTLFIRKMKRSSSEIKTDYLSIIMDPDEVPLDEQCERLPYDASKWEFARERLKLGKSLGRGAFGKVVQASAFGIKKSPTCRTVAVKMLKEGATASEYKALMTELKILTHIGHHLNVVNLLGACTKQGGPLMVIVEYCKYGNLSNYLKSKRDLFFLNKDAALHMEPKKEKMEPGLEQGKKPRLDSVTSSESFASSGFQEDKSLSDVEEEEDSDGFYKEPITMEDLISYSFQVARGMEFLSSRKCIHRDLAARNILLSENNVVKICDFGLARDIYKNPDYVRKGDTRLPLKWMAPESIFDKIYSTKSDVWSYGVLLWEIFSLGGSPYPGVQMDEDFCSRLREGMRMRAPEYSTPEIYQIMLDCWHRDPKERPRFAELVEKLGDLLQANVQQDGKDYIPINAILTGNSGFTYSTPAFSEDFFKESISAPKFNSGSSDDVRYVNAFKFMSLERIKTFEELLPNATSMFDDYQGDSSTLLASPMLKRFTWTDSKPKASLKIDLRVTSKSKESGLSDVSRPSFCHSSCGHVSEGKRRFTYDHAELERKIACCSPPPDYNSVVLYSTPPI
Chain of Dual specificity mitogen-activated protein kinase kinase 1 (Q02750 whole entry): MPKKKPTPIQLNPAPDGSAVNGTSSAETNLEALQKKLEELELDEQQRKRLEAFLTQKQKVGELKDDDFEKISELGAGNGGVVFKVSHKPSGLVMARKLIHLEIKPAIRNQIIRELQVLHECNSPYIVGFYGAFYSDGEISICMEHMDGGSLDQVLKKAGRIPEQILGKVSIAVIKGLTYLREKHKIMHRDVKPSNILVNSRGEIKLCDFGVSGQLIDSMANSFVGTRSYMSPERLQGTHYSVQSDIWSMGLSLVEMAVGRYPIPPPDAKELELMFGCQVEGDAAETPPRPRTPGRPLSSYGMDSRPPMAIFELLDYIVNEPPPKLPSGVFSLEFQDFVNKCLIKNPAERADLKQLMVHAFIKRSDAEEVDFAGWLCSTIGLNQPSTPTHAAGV

Ki [1]: > 2.51 µM (inactive) | Ki [2]: > 7.94 µM (inactive) | Ki [3]: > 3.16 µM (inactive) | Ki [4]: > 5.01 µM (inactive) | Ki [5]: 1 µM (active) | Ki [6]: > 6.31 µM (inactive) | Ki [7]: > 3.98 µM (inactive) | Ki [8]: > 3.98 µM (inactive) | Ki [9]: > 3.98 µM (inactive) | Ki [10]: > 3.16 µM (inactive) | Ki [11]: > 3.16 µM (inactive)
Structure (SMILES): COc1cccc(CNC(=O)c2cnc(-c3ccncc3)nc2)c1

Ki [2]: 0.158 µM (active) | pKi [2]: 6.8 | Ki [3]: 0.01 µM (active) | pKi [3]: 8 | Ki [12]: 1 µM (active) | pKi [12]: 6 | Ki [13]: 3.98 µM (active) | pKi [13]: 5.4 | Ki [4]: 0.0251 µM (active) | pKi [4]: 7.6 | Ki [5]: 0.0158 µM (active) | pKi [5]: 7.8 | Ki [14]: > 1.58 µM (inactive) | Ki [15]: 0.000158 µM (active) | pKi [15]: 9.8 | Ki [6]: 0.501 µM (active) | pKi [6]: 6.3 | Ki [7]: 0.631 µM (active) | pKi [7]: 6.2 | Ki [8]: 0.158 µM (active) | pKi [8]: 6.8 | Ki [16]: 2 µM (active) | pKi [16]: 5.7 | Ki [17]: 0.126 µM (active) | pKi [17]: 6.9 | Ki [9]: 2 µM (active) | pKi [9]: 5.7 | Ki [18]: 0.0398 µM (active) | pKi [18]: 7.4 | Ki [10]: 1 µM (active) | pKi [10]: 6 | Ki [11]: 0.0316 µM (active) | pKi [11]: 7.5 | Ki [19]: 0.00501 µM (active) | pKi [19]: 8.3 | Ki [20]: 0.316 µM (active) | pKi [20]: 6.5
Structure (SMILES): OC1CCC(Nc2nc(Cl)cc(-c3c[nH]c4ncccc34)n2)CC1 (stereo not drawn)
